Assay results published in patent publication US5202355A, “Method of inhibiting aldose reductase in diabetic hosts using phenol derivatives” (Takasago Institute for Interdisciplinary Science Inc., priority 1991, dated 1993).
Like-named read-outs stand apart in the source and are kept apart here.

What was measured:
aldose reductase = target: T1, aldose reductase (Bos taurus, UniProt P16116); assay: Aldose reductase inhibition (percent inhibition of enzyme activity); type: biochemical, calf
T1 construct: The enzyme was isolated from the homogenized preparation by successive chromatography; from tissue; host or cells: calf eye lens
Procedure: The following phenols were tested for their ability to inhibit aldose reductase enzyme activity.
The assay was conducted essentially according to the procedure of S. Hayman, et al., as described in the Journal of Biological Chemistry, 240, 877 (1965).
The preparation of aldose reductase was conducted according to the procedure of K. Inagaki et al., ARchives of Biochemistry and Biophysics, 216, 337 (1982). Briefly, lenses were removed from calf eyes and homogenized. The enzyme was isolated from the homogenized preparation by successive chromatography on a DEAE-sephacel column (Pharmacia LKB Biotechnology, Piscataway, N.J.), an affinity column (Matrex gel red A; Amicon Co., Danvers, Mass.), and a Sephadex G-75 column (Pharmacia LKB Biotechnology, Piscataway, N.J.).
A reaction mixture of 0.1M sodium phosphate buffer (pH 6.2), 0.4M ammonium sulfate, 10 mm glyceraldehyde, 0.16 mm NADPH, and 10 ml propylene glycol solution containing the purified enzyme was prepared. The test compound was incubated with the enzyme in the reaction mixture.
Aldose reductase activity was assayed spectrophotometrically by determining the decrease in the NADPH concentration at 340 nm in a Beckman DU-64 spectrophotometer (Beckman, Palo Alto, Calif.).
The percent inhibition of each compound was calculated by comparing the reaction rate of the solution containing substrate and the compound at a given concentration with that of the control solution containing only substrate.

[1] = tested on: galactosemic cataract formation; settings: experimental rats; cited from earlier work
[2] = tested on: peripheral nerve deterioration; settings: diabetic patients suffering from peripheral nerve deterioration; cited from earlier work
[3] = tested on: motor nerve conduction velocity (MNCV); settings: short and long-term streptozotocin induced diabetes in rats; cited from earlier work
[4] = target: calf lens aldose reductase; settings: cited from earlier work
[5] = 10^-6 M (× 3.8), read-out: Percent Inhibition (%)
[6] = 10^-6 M (× 7.5), read-out: Percent Inhibition (%)
[7] = 10^-6 M (× 1.9), read-out: Percent Inhibition (%)

| Structure (SMILES) | inhibition (aldose reductase; [5]) [%] | inhibition (aldose reductase; [6]) [%] | inhibition (aldose reductase; [7]) [%] | further results |
| --- | --- | --- | --- | --- |
| CCC/C=C\C/C=C\CCCCCCCc1cccc(O)c1C(=O)O [Compound 3, 6-[8(z),11(z)-pentadecadienyl]salicylic acid] | 18 | 91 | 1 | – |
| O=C(O)CN1C(=O)c2cccc3cccc(c23)C1=O [Alrestatin, 1,3-dioxo-1H-benz (de) isoquinoline-2(3H)-acetic acid] | – | – | – | galactosemic cataract formation [1]: successfully prevent galactosemic cataract formation; sugar polyol accumulations [1]: blocking the sugar polyol accumulations; improvement in diabetic patients [2]: no improvement was observed; motor nerve conduction velocity (MNCV) [3]: improve motor nerve conduction velocity (MNCV) |
| O=C1NC(=O)[C@@]2(CCOc3ccc(F)cc32)N1 [sorbinil, d-6-fluoro-spiro [chroman-4,4'-imidazolidine]-2',5'-dione] | – | – | – | IC50 ([4]; calf lens aldose reductase, read-out: IC50 concentration): ~500 nM; aldose reductase inhibitor potency (in words) [4]: one of the most potent inhibitors heretofore investigated; improvement in diabetic patients [2]: no beneficial effect was observed; motor nerve conduction velocity (MNCV) [3]: improve motor nerve conduction velocity (MNCV) |
| C=CC/C=C\C/C=C\CCCCCCCc1cc(O)cc(O)c1 [Compound 16, 5-[8(z),11(z),14-pentadecatrienyl]resorcinol] | – | – | – | inhibition (aldose reductase; read-out: Percent Inhibition (%), 10^-6 M (× 1.9)): 12%; inhibition (aldose reductase; read-out: Percent Inhibition (%), 10^-6 M (× 3.8)): 16%; inhibition (aldose reductase; read-out: Percent Inhibition (%), 10^-6 M (× 7.5)): 85% |

Now from value to compound, other results behind:

| inhibition (aldose reductase; [5]) [%] | inhibition (aldose reductase; [6]) [%] | inhibition (aldose reductase; [7]) [%] | Structure (SMILES) | further results |
| --- | --- | --- | --- | --- |
| 22 | 43 | – | CCC/C=C\C/C=C\CCCCCCCc1cc(O)c(C)c(O)c1 [Compound 11, 2-methyl-5-[8(z),11(z)-pentadecadienyl]resorcinol] | – |
| 27 | 40 | – | CCCCCCCCCCCCCCCc1cccc(O)c1C(=O)O [Compound 1, 6-Pentadecylsalicylic Acid] | – |
| 42 | 91 | 9 | CCCCCC/C=C\CCCCCCCc1cccc(O)c1C(=O)O [Compound 2, 6-[8(z)-pentadecenyl]salicylic acid] | – |
| 28 | 53 | – | C=CC/C=C\C/C=C\CCCCCCCc1cc(O)c(C)c(O)c1 [Compound 12, 2-methyl-5-[8(z),11(z),14-pentadecatrienyl]resorcinol] | – |
| 60 | 77 | 47 | C=CC/C=C\C/C=C\CCCCCCCc1cccc(O)c1C(=O)O [Compound 4, 6-[8(z),11(z),14-pentadecatrienyl]salicylic acid] | – |
